In US20260103479A1, “PRODRUGS OF OPICAPONE” (BIAL- PORTELA & CA, S.A., priority 2022, published 2026) one finds solubility data, which are given here for two compounds.

What is called solubility is the dissolved amount per volume that the medium holds. The low end stands for a poorly soluble substance, the high end for a readily soluble substance.

The nature of one series: physchem. Particulars: water, thermodynamic from solid, Solubility in pure water.
Series [1] is described as follows: Aqueous solubility in distilled (pure) water at room temperature. The note with it: thermodynamic from solid.
Experimental: (§1) The solubility studies were completed at room temperature. For the determination of the solubility increasing amounts of distilled water was added to 5 mg of the test sample until its complete dissolution of the product observed by naked eye.

Molecules are shown by their SMILES. ≈ marks a conversion by molar mass, not a printed value. Structures can show the parent of a compound that is named as a salt. A value given as a limit tells only on which side of the number the result lay.

Experimental for physchem: as §1

For `Cc1c(Cl)c(C)[n+]([O-])c(Cl)c1-c1noc(-c2cc(OP(=O)(O)O)c(O)c([N+](=O)[O-])c2)n1` [Compound 3, 2,5-dichloro-3-(5-(4-hydroxy-3-nitro-5-(phosphonooxy)phenyl)-1,2,4-oxadiazol-3-yl)-4,6-dimethylpyridine 1-oxide, triammonia salt], in the series “physchem”, the solubility was > 500 µg/mL.

In the case of `Cc1c(Cl)c(C)[n+]([O-])c(Cl)c1-c1noc(-c2cc(O)c(O)c([N+](=O)[O-])c2)n1` [Opicapone, 2,5-dichloro-3-(5-(3,4-dihydroxy-5-nitrophenyl)-1,2,4-oxadiazol-3-yl)-4,6-dimethylpyridine 1-oxide], the solubility in series [1] fell in the range of 23 to 36 µg/mL (≈ 55.7 to 87.1 µM).
